Assays:
[1] = Stability in human liver microsome in vitro; assay type: in vitro ADME; details: for half-life at 1 μM / microsomal CLint at 1 μM: human liver microsomes, pH 7.4, 1 μM compound, NADPH/UDPGA; for half-life at 1 μM: read-out: Half life (t1/2); for microsomal CLint at 1 μM: read-out: Intrinsic clearance rate (CLint)
Description: (§1) To evaluate the metabolic stability of the compounds of the present invention in liver microsome in vitro.
(§2) Formulation of the working solution of the compound: 2 μL of the stock solution of the compound was added to 998 μL of phosphate buffer, and the final concentration was 20 μM.
(§3) 78.1 μL of 20 mg/mL microsome was diluted to 2.5 mL with 100 mM phosphate buffer and mixed well, and the final concentration was 0.625 mg/mL.
(§4) 33.3 mg of NADPH and 25.8 mg of UDPGA were weighed respectively, followed by the addition of 2 mL of 100 mM phosphate buffer. The final concentrations were 20 mM.
(§5) 1 mg of Alamethicin was weighed, to which 200 μL of DMSO was added to obtain a 5 mg/mL solution. 10 μL of this solution was added to 990 μL of phosphate buffer (pH 7.4), and the final concentration was 50 μg/mL.
(§6) 400 μL of the formulated liver microsome, 25 μL of the working solution of the compound (10 μM) and 25 μL of Alamethicin (50 μg/mL) were added to a 96-well plate successively, which was then pre-incubated at 37° C. for 10 min. 50 μL of the formulated NADPH/UDPGA was added to initiate the reaction, and the plate was incubated at 37° C. The total volume of the reaction system was 500 μL. The final contents of the components are as follows:
(§7) […] The resulting sample was centrifuged at 4000 g for 10 min, and the supernatant was collected for LC-MS/MS analysis.

[2] = target: T1, Human Dopamine D3 Receptor membrane (Homo sapiens, UniProt P35462); experiment: Radioligand binding assay, dopamine D3 receptor ([3H]-methylspiperone)
T1 construct: purchased PerkinElmer ES-173-M400UA
Description: The objective of this test example is to determine the affinity of the compounds for dopamine D3 receptor.
(§8) 0.5 to 5 μL of the test compounds (0.005 nM to 100 nM, 10 concentrations in total) and 100 μL of buffer were added to a 96-well assay plate. 0.5 μL of cell membrane and 300 μL of buffer were added to each well. [^3H]-methylspiperone was added to the buffer, and the plate was incubated at 27° C. for 30 min. The […]-96 GF/B filter plate pre-incubated with 0.5% PEI for 1 h was washed twice with the buffer (1 mL/well). The cell membrane suspension was added to the […]-96 GF/B filter plate, washed 4 times, and incubated at 55° C. for 10 min. 40 μL of ULTIMA GOLD was added to each well, and liquid scintillation counting was carried out.
(§9) The CPM (Counts per minute) values were determined by TopCount. […] The 10 concentrations of the compound were from 100 nM to 0.005 nM after 3-fold dilution of the reaction system. The percent inhibition rate and ten-point concentration data were fitted to the parametric nonlinear logistic equation by using GraphPad prism to calculate the IC50 values of the compound.

D3 receptor = target: T2, D3 receptor (Homo sapiens, UniProt P35462); experiment: cAMP content in cells stably expressing D3 receptors (CHO-D3); assay type: cell-based; details: forskolin, agonistic activity
T2 construct: expressed in transfected cells; host or cells: CHO (CHO-D3, G418 selection)
Description: To determine the activation effect of the compounds on D3 receptor.
3. Experimental Method: • 1. Preparation of the buffer: 1*HBSS+20 mM HEPES+0.1% BSA+500 μM IBMX. • Complete medium: Ham's F12K+10% fetal bovine serum+1*penicillin-streptomycin+400 µg/mL G418. • 2. CHO-D3 cells were cultured in the complete medium at 37° C., 5% C02. After TrypLE digestion, the cells were resuspended in the experimental buffer, and seeded into a 384-well cell culture plate at a seeding density of 8000 cells per well. • 3. The experimental buffer (1*HBSS, 0.1% BSA, 20 mM HEPES and 500 μM IBMX) was prepared. The compound was diluted with the buffer. 2.5 μL of the compound solution was added to each well, and the plate was incubated at 37° C. for 10 minutes. The forskolin was diluted to 8 μM (8*) with the experimental buffer. 2.5 μL of the diluted 8*forskolin was added, and the plate was incubated at 37° C. for 30 minutes. cAMP-d2 and Anti-cAMP-Eu^3+ were thawed, and diluted by 20-fold with the lysis buffer. 10 μL of cAMP-d2 was added to the experimental well, followed by the addition of 10 μL of Anti-cAMP-Eu^3+. The reaction plate was centrifuged at 200 g for 30 s at room temperature, and left to stand at 25° C. for 1 h. Data was collected using Envision. 4. […]

5-HT2A receptor [3] = target: T3, 5-HT2A receptor (Homo sapiens, UniProt P28223); experiment: Radioligand binding assay, 5-HT2A receptor ([3H]-Ketanserin); parameters: purchased PerkinElmer; details: human 5-HT2A receptor membrane, read-out: 5HT-2A Binding IC50
Description: The objective of this test example is to determine the affinity of the compounds for 5-HT2A receptor.
as §8, with “[^3H]-Ketanserin” for “[^3H]-methylspiperone”
as §9

5-HT2A receptor [4] = target: T3, 5-HT2A receptor; experiment: Calcium ion mobility in cells stably expressing 5-HT2A receptors (Flp-In-CHO-5HT2A, FLIPR); assay type: cell-based; parameters: expressed in transfected cells; details: Flp-In-CHO-5HT2A stable pool, inhibition of 5HT response
Description: To determine the inhibitory effect of the compounds on 5-HT2A receptor.
3. […] Probenecid and BSA were added fresh on the day of the experiment. […] 4. Experimental Data Processing Method:
The calcium signal values were determined by FLIPR. The calculated output for each sampling time point in the experiment was the ratio of the 340/510 nm wavelength signals to 380/510 nm wavelength signals. The maximum minus minimum calculation was derived from the ratio signal curve. The percent inhibition rate and ten-point concentration data were fitted to the parametric nonlinear logistic equation by using GraphPad prism to calculate the IC50 values of the compound.

[5] = Stability in rat liver microsome in vitro; assay type: in vitro ADME, SD rat; details: for half-life at 1 μM / microsomal CLint at 1 μM: SD, rat liver microsomes, pH 7.4, 1 μM compound, NADPH/UDPGA; for half-life at 1 μM: read-out: Half life (t1/2); for microsomal CLint at 1 μM: read-out: Intrinsic clearance rate (CLint)
Description: as §1, §2, §3, §4, §5, §6, §7

[6] = Stability in dog liver microsome in vitro; assay type: in vitro ADME; details: for half-life at 1 μM / microsomal CLint at 1 μM: dog liver microsomes, pH 7.4, 1 μM compound, NADPH/UDPGA; for half-life at 1 μM: read-out: Half life (t1/2); for microsomal CLint at 1 μM: read-out: Intrinsic clearance rate (CLint)
Description: as §1, §2, §3, §4, §5, §6, §7

T2 sequence (P35462 whole entry): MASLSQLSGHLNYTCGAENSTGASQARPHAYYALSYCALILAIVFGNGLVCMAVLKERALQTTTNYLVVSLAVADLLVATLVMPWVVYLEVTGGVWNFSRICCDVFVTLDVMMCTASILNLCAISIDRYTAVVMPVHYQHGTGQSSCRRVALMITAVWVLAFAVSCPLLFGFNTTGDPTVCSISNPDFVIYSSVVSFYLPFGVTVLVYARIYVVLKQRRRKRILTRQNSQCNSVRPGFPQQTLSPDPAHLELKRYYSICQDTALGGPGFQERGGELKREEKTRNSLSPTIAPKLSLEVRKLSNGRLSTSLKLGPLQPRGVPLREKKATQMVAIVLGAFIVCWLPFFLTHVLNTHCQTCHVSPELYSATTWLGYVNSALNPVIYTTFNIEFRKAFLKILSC
T1 sequence (P35462 whole entry): as above
T3 sequence (P28223 whole entry): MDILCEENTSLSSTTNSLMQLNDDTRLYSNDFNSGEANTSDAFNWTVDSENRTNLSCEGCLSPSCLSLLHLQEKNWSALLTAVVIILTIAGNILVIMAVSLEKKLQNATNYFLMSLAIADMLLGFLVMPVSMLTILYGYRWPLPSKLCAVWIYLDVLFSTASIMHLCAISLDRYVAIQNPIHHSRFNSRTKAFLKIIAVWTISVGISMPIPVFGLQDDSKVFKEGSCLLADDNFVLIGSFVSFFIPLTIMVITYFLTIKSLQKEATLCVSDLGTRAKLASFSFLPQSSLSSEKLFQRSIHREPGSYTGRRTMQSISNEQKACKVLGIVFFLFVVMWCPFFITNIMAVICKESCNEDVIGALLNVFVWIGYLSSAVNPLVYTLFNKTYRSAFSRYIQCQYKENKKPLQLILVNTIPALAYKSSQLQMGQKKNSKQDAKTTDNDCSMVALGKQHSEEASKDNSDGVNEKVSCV

Remaining (%, 120 min) [1]	half-life at 1 μM [1]	microsomal CLint at 1 μM [1]	IC50 [2]	EC50 (D3 receptor)	IC50 (5-HT2A receptor [3])	IC50 (5-HT2A receptor [4])	Remaining (%, 120 min) [5]	half-life at 1 μM [5]	microsomal CLint at 1 μM [5]	Remaining (%, 120 min) [6]	half-life at 1 μM [6]	microsomal CLint at 1 μM [6]	SMILES
61.2%	1.27 h	45.4 µL/min/mg											CN(C)C(=O)NC1CC(CCN2CCN(c3cccc4sccc34)CC2)C1 (stereo not drawn) [Example 6, 3-(3-(2-(4-(Benzo[b]thiophen-4-yl)piperazin-1-yl)ethyl)cyclobutyl)-1,1-dimethylurea]
53.3%	2.31 h	10 µL/min/mg											O=C(N[C@H]1C[C@H](CCN2CCN(c3cccc(Cl)c3Cl)CC2)C1)C1(O)CC1 [Example 13A, N-(Trans-3-(2-(4-(2,3-dichlorophenyl)piperazin-1-yl)ethyl)cyclobutyl)-1-hydroxycyclopropane-1-carboxamide]
63.0%	1.55 h	37.2 µL/min/mg											O=C(NC1CC(CCN2CCN(c3cccc(Cl)c3Cl)CC2)C1)C1(O)CC1 (stereo not drawn) [Example 13, N-(3-(2-(4-(2,3-Dichlorophenyl)piperazin-1-yl)ethyl)cyclobutyl)-1-hydroxycyclopropane-1-carboxamide]
79.5%	3.16 h	18.3 µL/min/mg											CC(C)(O)CC(=O)NC1CC(CCN2CCN(c3cccc(Cl)c3Cl)CC2)C1 (stereo not drawn) [Example 15, N-(3-(2-(4-(2,3-Dichlorophenyl)piperazin-1-yl)ethyl)cyclobutyl)-3-hydroxy-3-methylbutanamide]
			0.33 nM	1.7 nM	1.8 nM	4.28 nM							Cc1ncc(C(=O)N[C@H]2C[C@H](CCN3CCN(c4cccc(Cl)c4Cl)CC3)C2)o1 [Example 24A]
42.8%	1.77 h	13.1 µL/min/mg					25.4%	1 h	23.1 µL/min/mg	29.2%	1.18 h	19.6 µL/min/mg	O=C(N[C@H]1C[C@H](CCN2CCN(c3cccc(Cl)c3Cl)CC2)C1)c1ncco1 [Example 20A, N-(Trans-3-(2-(4-(2,3-dichlorophenyl)piperazin-1-yl)ethyl)cyclobutyl)oxazole-2-carboxamide]
34.4%	1.29 h	18 µL/min/mg					19.1%	0.878 h	26.3 µL/min/mg	21.4%	0.835 h	27.7 µL/min/mg	CN(C)C(=O)N[C@H]1CC[C@H](CCN2CCN(c3cccc(Cl)c3Cl)CC2)CC1 [Cariprazine, reference compound]
			0.34 nM	0.9 nM	1.35 nM	4.37 nM							Cc1cc(C(=O)N[C@H]2C[C@H](CCN3CCN(c4cccc(Cl)c4Cl)CC3)C2)on1 [Example 22A]
			0.95 nM	0.4 nM	41.5 nM	39 nM							CC(C)(O)C(=O)N[C@H]1C[C@H](CCN2CCN(c3cccc(Cl)c3Cl)CC2)C1 [Example 11A]
